What was measured:
Assay type in all cases: in vivo, mouse
[1] = General health and body weight during chronic treatment; conditions: 3 weeks of daily treatment, ip 0.6 mg kg-1; WT and Ts65Dn mice
Method: (§1) A veterinarian was employed to maintain the health and comfort of the animals. Mice were housed in filtered cages in a temperature-controlled room with a 12:12 h dark/light cycle and with ad libitum access to water and food. All efforts were made to minimize animal suffering and use the lowest possible number of animals required to produce statistical relevant results, according to the “3Rs concept”. In this study, we used Ts65Dn mice maintained in their original genetic background[57] by crossing (more than 40 times) Ts65Dn female to C57BL/6JEi × C3SnHeSnJ (B6EiC3) F1 males (Jackson Laboratories). Ts65Dn mice were genotyped by PCR as previously described.[58] Only males were used for behavioral experiments. Ts65Dn and controls were randomly assigned to vehicle groups (2% DMSO in saline), bumetanide (Sigma, 0.6 mg kg^–1 body weight), or 40 (0.6 mg kg^–1 body weight) and treated daily for ∼21 days by intraperitoneal injection (i.p.). On the day of behavioral testing, injection was performed 1 h before the task began.

[2] = test system: Ts65Dn mice; experiment: Novel object recognition (NOR) test; conditions: ip 0.6 mg kg-1 daily, chronic (7-21 days)
Method: as §1
(§2) Ts65Dn male mice (8–16 weeks old) were tested after 1 week of treatment with vehicle or 40 (0.6 mg kg^–1 i.p.). The battery of tests was run over a total period of ∼14 days (four behavioral tests with the following order Open Field, NOR, T-maze, and CFC). […] The tasks were video-recorded and then analyzed manually by a blind operator.

[3] = test system: Ts65Dn mice; experiment: Open field test (locomotor activity); conditions: ip 0.6 mg kg-1 daily
Method: All animal procedures were approved by IIT licensing in compliance with the Italian Ministry of Health (D.Lgs 26/2014) and EU guidelines (Directive 2010/63/EU). A veterinarian was employed to maintain the health and comfort of the animals. Mice were housed in filtered cages in a temperature-controlled room with a 12:12 h dark/light cycle and with ad libitum access to water and food. All efforts were made to minimize animal suffering and use the lowest possible number of animals required to produce statistical relevant results, according to the “3Rs concept”. In this study, we used Ts65Dn mice maintained in their original genetic background[57] by crossing (more than 40 times) Ts65Dn female to C57BL/6JEi × C3SnHeSnJ (B6EiC3) F1 males (Jackson Laboratories). Ts65Dn mice were genotyped by PCR as previously described.[58] Only males were used for behavioral experiments. […]
Ts65Dn male mice (8–16 weeks old) were tested after 1 week of treatment with vehicle or 40 (0.6 mg kg^–1 i.p.). […] The tasks were video-recorded and then analyzed manually by a blind operator. […] The alternation score was calculated as the percentage of correct choices (i.e., left–right or right–left) over the total number of the 10 possible alternations. […]

[4] = test system: Ts65Dn mice; experiment: Contextual fear-conditioning (CFC) test; conditions: ip 0.6 mg kg-1 daily, chronic, re-exposure 24 h after conditioning
Method: as §1, §2

SMILES: CN(C)S(=O)(=O)c1cc(C(=O)O)c(O)cc1NCCCCCCCC(F)(F)F [Compound 40, 5-(N,N-Dimethylsulfamoyl)-2-hydroxy-4-((8,8,8-trifluorooctyl)amino)benzoic Acid]
- animal body weight [1]: did not affect the animal body weight measures
- general health (daily hands-on examination) [1]: did not affect the general health
- novel-discrimination ability in the NOR task (discrimination index) [2]: completely rescued
- hyperactivity in open field (distance traveled and average walking speed) [3]: rescued also the hyperactivity
- associative memory in the CFC test (freezing response) [4]: completely restored

Source: paper PMC8311653, “Design, Synthesis, In Vitro and In Vivo Characterization of Selective NKCC1 Inhibitors for the Treatment of Core Symptoms in Down Syndrome” (Journal of Medicinal Chemistry, 2021)
